Laboratory results: patent publication US8765692B2, “Modified-galactosyl ceramides for staining and stimulating natural killer T cells” (The Scripps Research Institute, priority 2006, dated 2014)

Columns and labels:
Solubility in DMSO = type: physicochemical; settings: for solubility: 20 °C, organic solvent or mixture; for solubility (in words): relative to KRN7000 or fully saturated compounds
Method: As with most glycolipids, solubility issues are central to handling the compounds. Compounds are usually solubilized in DMSO, and then diluted to working concentrations in aqueous solutions. […] In suitable embodiments, the compounds of the invention are at least about 10 mg/mL in DMSO under ambient conditions (approximately 20° C.). In more suitable embodiments, the compounds of the invention are at least about 20 mg/mL in DMSO at ambient temperature. In further suitable embodiments, the compounds of the invention are at least 80%, at least two-fold, or at least 4-fold relative to the solubility of KRN7000 in DMSO at ambient temperature.

[1] = test system: NKT cells (B6 mouse splenocytes); experiment: Cytokine release in vitro from mouse splenocytes (IL-4 and IFNγ ELISA); type: cell-based; settings: for concentration at which cytokine responses plateau: 5×10^5 B6 splenocytes, IL-4 and IFNγ ELISA, FIG. 6
Method: To determine if PBS-57 stimulated cytokine release by NKT cells in vitro, 5×10^5 mouse splenocytes isolated from B6 mice were incubated in separate wells with 10^5, 10^4, 10^3, 100, 10 and 1 pg/mL of PBS-57 or KRN7000 in RPMI 1640 media supplemented with 10% FBS, 50 μM 2-mercaptoethanol, 2 mM glutamine and antibiotics. After 48 hours, IL-4 and IFNγ levels were measured by ELISA (BD Pharmingen).

NKT cells [2] = experiment: CD1d tetramer staining of NKT cells in human blood samples; type: cell-based; settings: PBS-57 loaded mouse and human CD1d tetramers
From the text: (§1) To test whether PBS-57 could facilitate NKT cell binding in blood samples of both human and non-human primates, mouse and human CD1d tetramers were loaded with PBS-57 as described in Example 2. A majority of the human blood samples contained sufficient NKT cells (>0.08% of CD3-positive cells) to observe staining (14 out of 17 samples), while some samples may have contained too few NKT cells to allow detection of staining (Lee et al., 2002).

NKT cells [3] = experiment: CD1d tetramer staining of NKT cells in sooty mangabey blood samples; type: cell-based; settings: sooty mangabeys
From the text: as §1

NKT cell hybridomas = experiment: Binding of PBS-57 loaded CD1d tetramers to NKT cell hybridomas expressing different Vβ; type: cell-based; settings: hybridomas with different Vβ TCR, 37° C. 4 hours, FIG. 4
Method: The TCR expressed on NKT cells are limited to a invariant Vα subunit, and a variable Vβ subunit that respond to glycolipid presentation by CD1d. To determine if PBS-57 loaded tetramers were Vβ subunit specific in their ability to bind, NKT cell hybridomas expressing different Vβ were tested for their ability to bind PBS-57 loaded CD1d tetramers.
For staining of NKT cell hybridomas, soluble CD1d (sCD1d) tetramers were loaded with PBS-57 or KRN7000 by the following procedure. Stock reagents of the following were prepared: sCD1d (1 mg/ml in phosphate buffer saline (PBS)); PBS-57 (1 mg/ml in DMSO); Tween 20 (0.5% in PBS); and streptavidin-APC (80 μg/mL in PBS). 10 μL sCD1d stock, 1 μL PBS-57 stock, and 10 μL Tween 20 stock were mixed, and 79 μL PBS was added to bring the volume up to 100 μL. […] To separate unbound glycolipid, the mixture was applied to a Microcon YM30 filter (Millipore) that has been previously wetted with PBS (400 μL). The loaded membrane was centrifuged until only ˜10 μL of solution remained. The volume was then increased to 100 μL by addition of PBS. The solution was agitated to aid in freeing the protein from the filter. The Microcon unit was inverted into a fresh Eppendorf tube and the contents were centrifuged into the tube. A 10 μL aliquot of the solution was removed and the streptavidin-APC solution (5 μL) was added. […]

NKT cells [4] = experiment: CD1d tetramer staining of NKT cells in rhesus macaque blood samples; type: cell-based; settings: rhesus macaques, 12 samples
From the text: as §1

NKT cells [5] = experiment: CD1d tetramer staining of NKT cells in chimpanzee blood samples; type: cell-based; settings: PBS-57 loaded CD1d tetramers
From the text: as §1

NKT cells [6] = experiment: CD1d tetramer staining of NKT cells in pigtail macaque blood samples; type: cell-based; settings: pigtail macaques
From the text: as §1

NKT cells [7] = experiment: Cytokine release in vivo: serum INF-γ after intravenous injection; parameters: species or system mouse
Method: To examine if PBS-57 elicited an immune response in vivo, the ability of PBS-57 and KRN7000 to elicit an increase in cytokine levels in a mouse was assayed. 1 mg/ml stock solutions of PBS-57 and KRN7000 in DMSO were prepared. The PBS-57 and KRN7000 solutions were diluted with PBS to 1, 100, 10^4, and 10^6 pg/mL. 100 μL of each solution was injected intravenously into 6 week-old B6 mice. Serum samples were isolated from the mice at 24 hours, and the concentration of INF-γ was assayed by ELISA (BD Pharmingen).

Vα14i NKT cells = experiment: Staining of Vα14i NKT cells with glycolipid-loaded mouse CD1d tetramers (flow cytometry); type: cell-based; settings: summary statement, compared with KRN7000
Method: An typical means to isolate and quantify CD1 responsive NKT cells is through flow cytometry using fluorophore tagged CD1d tetramers loaded with sphingoglycolipids. To test for the ability of PBS-57 to facilitate CD1d tetramer staining, glycolipid-loaded CD1d tetramers were formed. Biotinylated mouse sCD1d molecules (in PBS) were mixed with PBS-57 or KRN7000 at a molar ratio of 1:3 (protein:lipid) and incubated overnight at room temperature. The following day, 80 μg of streptavidin-PE (Pharmagen) was added to 200 μg of the CD1-glycolipid mix and incubated at room temperature for 4 hours. Tetramers were stored at 4° C. until use.
Single cell suspensions of thymocytes and splenocytes were isolated from C57BL/6J mice (Jackson Laboratories, Bar Harbor, Me.) as known in the art. The TCR repertoire of the NKT cells was limited with an invariable Vα subunit (Vα14 in mice) and varied Vβ subunits. 10^6 cells were incubated with 200 μL staining media (2% BSA, 1% NaN3, 10 mM EDTA in PBS) with 2.4G2 (1:100; ATCC, Manassas, Va.) and Neutravidin (5 μg/200 μl; Molecular Probes, Eugene, Oreg.) for 20 minutes on ice. […] Cells were washed twice in staining media, fixed with 1% paraformaldehyde in PBS and analyzed by flow cytometry.

solubility (Solubility in DMSO) [mg/mL] | solubility (Solubility in DMSO; molar value printed in parentheses) [mM] | Compound | solubility (in words) (Solubility in DMSO) | concentration at which cytokine responses plateau ([1]; 48 hours) | blood samples with observable NKT cell staining (NKT cells [2]) | NKT cell staining in blood samples (NKT cells [3]) | effect of Vβ subunit variation on binding of loaded CD1d tetramers (NKT cell hybridomas) | share of blood samples with significant NKT cell staining (NKT cells [4]) | blood samples with significant NKT cell staining (NKT cells [5]) | Th1 and Th2 cytokine secretion ([1]; B6 splenocytes, 48 hours) | NKT cell stimulation in vitro relative to KRN7000 ([1]; summary statement, in vitro) | NKT cell staining in blood samples (NKT cells [6]) | serum INF-γ concentration relative to KRN7000 (NKT cells [7]; B6 mice, intravenous, 100 μL of 1 to 10^6 pg/mL, serum at 24 hours, FIG. 7) | NKT cell stimulation in vivo relative to KRN7000 (NKT cells [7]; summary statement, in vivo) | staining of mouse and human NKT cells (summary) (Vα14i NKT cells)
< 5 |  | CCCCCCCCCCCCCCCCCCCCCCCCCC(=O)N[C@@H](CO[C@H]1O[C@H](CO)[C@H](O)[C@H](O)[C@H]1O)[C@H](O)[C@H](O)CCCCCCCCCCCCCC [KRN7000, reference compound] | relatively poor solubility in either aqueous or organic solvents | ~1000 pg/mL |  |  |  |  |  |  |  |  |  |  | 
20 | 22.4 | CCCCCCCCC=CCCCCCCCCCCCCCC(=O)N[C@@H](OC1OC(CNC(C)=O)C(O)C(O)C1O)C(O)[C@H](O)CCCCCCCCCCCCCC (stereo partly drawn) [PBS-57] | relatively high solubility | approximately 100 pg/mL | 14 out of 17 | No staining | did not affect the binding | one quarter | 6 out of 10 | able to induce both Th1 and Th2 cytokine secretion | stimulates NKT cells more effectively than KRN7000 | No staining | equal to or greater than KRN7000 | stimulates NKT cells more effectively than KRN7000 | as well as KRN7000
